As usually defined, the IC50 is the concentration at which inhibition is half-maximal. Lower therefore signals greater potency.

The assay has as its target Complement factor D (Homo sapiens, UniProt P00746). In words: Human Factor D Assay. The protocol: Human Factor D (purified from human serum, Complement Technology, Inc.) at 80 nM final concentration is incubated with test compound at various concentrations for 5 min at room temperature in 50 mM Tris, 1M NaCl, pH 7.5. A synthetic substrate Z-L-Lys-SBzl and DTNB (Ellman's reagent) are added to final concentrations of 100 μM each. […] IC50 values are calculated by nonlinear regression of complement Factor D reaction rates as a function of test compound concentration.

Sequence of Complement factor D (P00746 whole entry): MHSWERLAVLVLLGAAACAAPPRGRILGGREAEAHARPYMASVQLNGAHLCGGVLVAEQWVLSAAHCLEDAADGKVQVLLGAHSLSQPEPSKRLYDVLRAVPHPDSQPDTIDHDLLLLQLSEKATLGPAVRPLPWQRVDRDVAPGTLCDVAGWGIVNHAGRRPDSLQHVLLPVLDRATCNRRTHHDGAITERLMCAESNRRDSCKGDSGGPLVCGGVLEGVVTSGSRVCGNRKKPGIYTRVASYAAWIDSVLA

As to `CC(=O)c1nn(CC(=O)N2C[C@H](F)C[C@H]2C(=O)NC2CCN(C(=O)c3cn[nH]c3)CC2)c2ccc(-c3cnc(C)nc3)cc12` [US11407738, Example 00330], the IC50 entry was “in the range around 5.5 µM”.
